We go through 21 compounds from US10745382B2 (BRISTOL-MYERS SQUIBB COMPANY, priority 2015, dated 2020).

As usually defined, the IC50 is the concentration at which inhibition is half-maximal.

T1 sequence (Q9NZQ7 with tags, fused parts or gaps): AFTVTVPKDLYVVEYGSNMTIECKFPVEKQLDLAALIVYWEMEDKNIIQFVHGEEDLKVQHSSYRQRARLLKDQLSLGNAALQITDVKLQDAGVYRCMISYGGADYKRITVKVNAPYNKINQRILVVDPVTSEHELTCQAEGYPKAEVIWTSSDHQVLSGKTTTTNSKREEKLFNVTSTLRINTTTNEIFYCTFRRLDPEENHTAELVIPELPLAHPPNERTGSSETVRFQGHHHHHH

The first test concerns the target T1, PD-1/PD-L1 (Homo sapiens, UniProt Q9NZQ7).
T1 construct: made in house; host or cells: HEK293T
Put plainly: PD-1/PD-L1 Homogenous Time-Resolved Fluorescence (HTRF) binding assay. The note with it: PD-L1-His 10 nM, PD-1-Ig 20 nM; numeric IC50, cell prints uM; read-out: Range or IC50. In outline: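 Binding was measured by HTRF in dPBS with 0.1% BSA and 0.05% Tween-20. Detection used europium cryptate anti-Ig (1 nM final) and APC anti-His (20 nM final) added over the binding reaction.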
(In general: Time-resolved FRET reads energy transfer from a long-lived donor to a nearby acceptor.)
As for `Cc1c(OCCCN2CC[C@@H](O)C2)cccc1-c1cccc(OCc2cc(O)c(CN(C)C)cc2Cl)c1C` [Example 2123, (R)-1-(3-((3′-((2-chloro-4-((dimethylamino)methyl)-5-hydroxybenzyl)oxy)-2,2′-dimethyl-[1,1′-biphenyl]-3-yl)oxy)propyl)pyrrolidin-3-ol], the IC50 was 2 µM.

The same test, now with this note: PD-L1-His 10 nM, PD-1-Ig 20 nM; numeric IC50; read-out: Range or IC50.
Regarding `Cc1c(COc2cc(OCc3cncc(C#N)c3)c(CN3CCCC[C@H]3C(=O)O)cc2Cl)cccc1-c1cccc(OCCCN2CCN(c3ccccn3)CC2)c1C` [Example 2216, (2S)-1-(5-chloro-2-((5-cyanopyridin-3-yl)methoxy)-4-((2,2′-dimethyl-3′-(3-(4-(pyridin-2-yl)piperazin-1-yl)propoxy)biphenyl-3-yl)methoxy)benzyl)piperidine-2-carboxylic Acid], the IC50 is 0.03 µM.

The test is the same for the next values; noted with them: PD-L1-His 10 nM, PD-1-Ig 20 nM; value given as range class; read-out: Range or IC50.
`Cc1c(COc2cc(OCc3cncc(C#N)c3)c(CN3CCCC[C@H]3C(=O)O)cc2Cl)cccc1-c1cccc(OC[C@H]2CCN(CC(O)CO)C2)c1Cl` (stereo partly drawn) [Example 2120, (2S)-1-(5-chloro-4-((2′-chloro-3′-(((3S)-1-(2,3-dihydroxypropyl)pyrrolidin-3-yl)methoxy)-2-methyl-[1,1′-biphenyl]-3-yl)methoxy)-2-((5-cyanopyridin-3-yl)methoxy)benzyl)piperidine-2-carboxylic Acid]: the IC50 is 0.00021 to 0.01 µM.
The same measure, in the same setting: to `Cc1c(COc2cc(OCc3cncc(C#N)c3)c(CNCCN3CCOCC3)cc2Cl)cccc1-c1cccc(OCCCN2CC[C@@H](O)C2)c1C` [Example 2122, (R)-5-((4-chloro-5-((3′-(3-(3-hydroxypyrrolidin-1-yl)propoxy)-2,2′-dimethyl-[1,1′-biphenyl]-3-yl)methoxy)-2-(((2-morpholinoethyl)amino)methyl)phenoxy)methyl)nicotinonitrile] belongs 0.00021 to 0.01 µM.
On the same count and under the same terms, in the case of `Cc1c(COc2cc(OCc3cncc(C#N)c3)c(CN3CC[C@@H](O)C3)cc2Cl)cccc1-c1cccc(OCCCN2CC[C@@H](O)C2)c1C` [Example 2201, 5-((4-chloro-2-(((R)-3-hydroxypyrrolidin-1-yl)methyl)-5-((3′-(3-((R)-3-hydroxypyrrolidin-1-yl)propoxy)-2,2′-dimethylbiphenyl-3-yl)methoxy)phenoxy)methyl)nicotinonitrile] it was 0.00021 to 0.01 µM.
Regarding `Cc1c(COc2cc(OCc3cncc(C#N)c3)c(CN3CCCC[C@H]3C(=O)O)cc2Cl)cccc1-c1cccc(OCCCN2CCCCC2CO)c1C` (stereo partly drawn) [Example 2202, (2S)-1-(5-chloro-2-((5-cyanopyridin-3-yl)methoxy)-4-((3′-(3-(2-(hydroxymethyl)piperidin-1-yl)propoxy)-2,2′-dimethylbiphenyl-3-yl)methoxy)benzyl)piperidine-2-carboxylic Acid], the IC50 lay in the range of 0.00021 to 0.01 µM.
The same measure, in the same setting: to `Cc1c(COc2cc(OCc3cncc(C#N)c3)c(CN3CCCC[C@H]3C(=O)O)cc2Cl)cccc1-c1cccc(OCCCN2CC[C@H](CO)[C@H](O)C2)c1C` [Example 2203, (2S)-1-(5-chloro-2-((5-cyanopyridin-3-yl)methoxy)-4-((3′-(3-((3 S,4R)-3-hydroxy-4-(hydroxymethyl)piperidin-1-yl)propoxy)-2,2′-dimethylbiphenyl-3-yl)methoxy)benzyl)piperidine-2-carboxylic Acid] belongs 0.00021 to 0.01 µM; to `Cc1c(COc2cc(OCc3cncc(C#N)c3)c(CN3CCCC[C@H]3C(=O)O)cc2Cl)cccc1-c1cccc(OCCCN2CCC[C@H](C(=O)O)C2)c1C` [Example 2204, (2S)-1-(4-((3′-(3-((S)-3-carboxypiperidin-1-yl)propoxy)-2,2′-dimethylbiphenyl-3-yl)methoxy)-5-chloro-2-((5-cyanopyridin-3-yl)methoxy)benzyl)piperidine-2-carboxylic Acid], 0.00021 to 0.01 µM.
The same measure, in the same setting: to `Cc1c(COc2cc(OCc3cncc(C#N)c3)c(CN3CCCC[C@H]3C(=O)O)cc2Cl)cccc1-c1cccc(OCCCN2CCC[C@@H](C(=O)O)C2)c1C` [Example 2205, (2S)-1-(4-((3′-(3-((R)-3-carboxypiperidin-1-yl)propoxy)-2,2′-dimethylbiphenyl-3-yl)methoxy)-5-chloro-2-((5-cyanopyridin-3-yl)methoxy)benzyl)piperidine-2-carboxylic Acid] belongs 0.00021 to 0.01 µM; to `Cc1c(COc2cc(OCc3cncc(C#N)c3)c(CN3CCCC[C@H]3C(=O)O)cc2Cl)cccc1-c1cccc(OCCCN2CCCC(CO)C2)c1C` (stereo partly drawn) [Example 2206, (2S)-1-(5-chloro-2-((5-cyanopyridin-3-yl)methoxy)-4-((3′-(3-(3-(hydroxymethyl)piperidin-1-yl)propoxy)-2,2′-dimethylbiphenyl-3-yl)methoxy)benzyl)piperidine-2-carboxylic Acid], 0.00021 to 0.01 µM.
For the compound `Cc1c(COc2cc(OCc3cncc(C#N)c3)c(CN3CCCC[C@H]3C(=O)O)cc2Cl)cccc1-c1cccc(OCCCN2CCCC(C(N)=O)C2)c1C` (stereo partly drawn) [Example 2207, (2S)-1-(4-((3′-(3-(3-carbamoylpiperidin-1-yl)propoxy)-2,2′-dimethylbiphenyl-3-yl)methoxy)-5-chloro-2-((5-cyanopyridin-3-yl)methoxy)benzyl)piperidine-2-carboxylic Acid], the half-maximal inhibitory concentration (IC50) fell in the range of 0.00021 to 0.01 µM.
The same measure, in the same setting: in the case of `CCN(CC)C(=O)C1CCCN(CCCOc2cccc(-c3cccc(COc4cc(OCc5cncc(C#N)c5)c(CN5CCCC[C@H]5C(=O)O)cc4Cl)c3C)c2C)C1` (stereo partly drawn) [Example 2208, (2S)-1-(5-chloro-2-((5-cyanopyridin-3-yl)methoxy)-4-((3′-(3-(3-(diethylcarbamoyl)piperidin-1-yl)propoxy)-2,2′-dimethylbiphenyl-3-yl)methoxy)benzyl)piperidine-2-carboxylic Acid] it was 0.00021 to 0.01 µM.
With `Cc1c(COc2cc(OCc3cncc(C#N)c3)c(CN3CCCC[C@H]3C(=O)O)cc2Cl)cccc1-c1cccc(OCCCN[C@@H](Cc2ccncc2)C(=O)O)c1C` [Example 2209, (2S)-1-(4-((3′-(3-((S)-1-carboxy-2-(pyridin-4-yl)ethylamino)propoxy)-2,2′-dimethylbiphenyl-3-yl)methoxy)-5-chloro-2-((5-cyanopyridin-3-yl)methoxy)benzyl)piperidine-2-carboxylic Acid], the IC50 fell in the range of 0.01 to 0.1 µM.
For `Cc1c(COc2cc(OCc3cncc(C#N)c3)c(CN3CCCC[C@H]3C(=O)O)cc2Cl)cccc1-c1cccc(OCCCNCCc2ccncc2)c1C` [Example 2210, (2S)-1-(5-chloro-2-((5-cyanopyridin-3-yl)methoxy)-4-((2,2′-dimethyl-3′-(3-(2-(pyridin-4-yl)ethylamino)propoxy)biphenyl-3-yl)methoxy)benzyl)piperidine-2-carboxylic Acid], the IC50 was in the range of 0.00021 to 0.01 µM.
In the case of `Cc1c(COc2cc(OCc3cncc(C#N)c3)c(CN3CCCC[C@H]3C(=O)O)cc2Cl)cccc1-c1cccc(OCCCN2CCN(CCO)CC2)c1C` [Example 2211, (2S)-1-(5-chloro-2-((5-cyanopyridin-3-yl)methoxy)-4-((3′-(3-(4-(2-hydroxyethyl)piperazin-1-yl)propoxy)-2,2′-dimethylbiphenyl-3-yl)methoxy)benzyl)piperidine-2-carboxylic Acid], the IC50 was 0.00021 to 0.01 µM.
For the compound `Cc1c(COc2cc(OCc3cncc(C#N)c3)c(CN3CCCC[C@H]3C(=O)O)cc2Cl)cccc1-c1cccc(OCCCN2CCOCC2)c1C` [Example 2212, (2S)-1-(5-chloro-2-((5-cyanopyridin-3-yl)methoxy)-4-((2,2′-dimethyl-3′-(3-morpholinopropoxy)biphenyl-3-yl)methoxy)benzyl)piperidine-2-carboxylic Acid], the IC50 lay within 0.00021 to 0.01 µM.
Regarding `Cc1c(COc2cc(OCc3cncc(C#N)c3)c(CN3CCCC[C@H]3C(=O)O)cc2Cl)cccc1-c1cccc(OCCCN2CCCCC2)c1C` [Example 2213, (2S)-1-(5-chloro-2-((5-cyanopyridin-3-yl)methoxy)-4-((2,2′-dimethyl-3′-(3-(piperidin-1-yl)propoxy)biphenyl-3-yl)methoxy)benzyl)piperidine-2-carboxylic Acid], the 50% inhibitory concentration (IC50) lay within 0.00021 to 0.01 µM.
As for `Cc1c(COc2cc(OCc3cncc(C#N)c3)c(CN3CCCC[C@H]3C(=O)O)cc2Cl)cccc1-c1cccc(OCCCN2CCC(CO)CC2)c1C` [Example 2214, (2S)-1-(5-chloro-2-((5-cyanopyridin-3-yl)methoxy)-4-((3′-(3-(4-(hydroxymethyl)piperidin-1-yl)propoxy)-2,2′-dimethylbiphenyl-3-yl)methoxy)benzyl)piperidine-2-carboxylic Acid], the IC50 was 0.00021 to 0.01 µM.
On the same count and under the same terms, in the case of `CC(=O)NC1CCN(CCCOc2cccc(-c3cccc(COc4cc(OCc5cncc(C#N)c5)c(CN5CCCC[C@H]5C(=O)O)cc4Cl)c3C)c2C)C1` (stereo partly drawn) [Example 2215, (2S)-1-(4-((3′-(3-(3-acetamidopyrrolidin-1-yl)propoxy)-2,2′-dimethylbiphenyl-3-yl)methoxy)-5-chloro-2-((5-cyanopyridin-3-yl)methoxy)benzyl)piperidine-2-carboxylic Acid] it was 0.00021 to 0.01 µM.
In the case of `Cc1c(COc2cc(OCc3cncc(C#N)c3)c(CN3CCCC[C@H]3C(=O)O)cc2Cl)cccc1-c1cccc(OCCCN2CCN(CC(=O)NC(C)C)CC2)c1C` [Example 2217, (2S)-1-(5-chloro-2-((5-cyanopyridin-3-yl)methoxy)-4-((3′-(3-(4-(2-(isopropylamino)-2-oxoethyl)piperazin-1-yl)propoxy)-2,2′-dimethylbiphenyl-3-yl)methoxy)benzyl)piperidine-2-carboxylic Acid], the IC50 lay within 0.00021 to 0.01 µM.
Same read-out and setting: to `Cc1c(COc2cc(OCc3cncc(C#N)c3)c(CN3CCCC[C@H]3C(=O)O)cc2Cl)cccc1-c1cccc(OCCCN(C)CCc2ccccc2)c1C` [Example 2218, (2S)-1-(5-chloro-2-((5-cyanopyridin-3-yl)methoxy)-4-((2,2′-dimethyl-3′-(3-(methyl(phenethyl)amino)propoxy)biphenyl-3-yl)methoxy)benzyl)piperidine-2-carboxylic Acid] belongs 0.00021 to 0.01 µM.
